Measured values: PMC6556873, “Rapid Covalent-Probe Discovery by Electrophile-Fragment Screening” (Journal of the American Chemical Society, 2019)
Where two headings read alike, the source gives them in different places.

Columns and labels:
NUDT7 = molecular target: T1, NUDT7 (Homo sapiens, UniProt P0C024); parameters: Intact protein LC/MS covalent labelling, fragments in pools of five, 200 uM each, 4 °C; details: 24 h, 4 °C, pool of five; 200 µM; covalent
T1 construct: residues 14-235, E. coli, pNIC28-Bsa4, N-terminal His6 tag removed by TEV, construct 26672 Da
T1 sequence (P0C024 14-235): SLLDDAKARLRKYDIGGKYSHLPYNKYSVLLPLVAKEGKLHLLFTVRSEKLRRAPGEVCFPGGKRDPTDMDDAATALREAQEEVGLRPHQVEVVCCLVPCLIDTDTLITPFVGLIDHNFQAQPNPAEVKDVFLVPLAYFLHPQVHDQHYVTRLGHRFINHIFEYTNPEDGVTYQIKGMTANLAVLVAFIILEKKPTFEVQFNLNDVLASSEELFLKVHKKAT
Description: (§1) Incubations were performed at 200 μM for each compound and 2 μM of protein (10 μM for BSA) for 24 h at 4 °C with moderate shaking. Incubation buffers varied among proteins (PBS pH 7.4 for QSOX1 and BSA; 10 mM HEPES pH 7.5, 0.3 M NaCl, 0.5 mM TCEP for PCAF, UPS8, and NUDT7; […]; 10 mM Na2HPO4 pH 7.5 100 mM NaCl 5 mM β-mercaptoethanol for NV3CP; 20 mM Na phosphate pH 7.5 for NNMT; […]. The reaction was stopped by quenching with formic acid, 0.4% final concentration. Each protein was incubated with the electrophilic library in pools of five compounds per well. The pool’s composition maximized the difference in mass between fragments in the same well. Incubations were performed with each fragment at 200 μM, for 24 h at 4 °C, to allow the screening of proteins that are not stable for long time periods at higher temperatures. Following incubation, we used intact protein [compound left out] chromatography/mass spectrometry (LC/MS) to identify the fragments and quantify their labeling (Figure 3A). […] There was good agreement between the percent of labeling of NUDT7 by 100 random individual compounds and that obtained in pools of five (R^2=0.78; Figure S6 and Data set 2 in the Supporting Information).

PCAF = molecular target: T2, PCAF (Homo sapiens, UniProt Q92831); parameters: Intact protein LC/MS covalent labelling, fragments in pools of five, 200 uM each, 4 °C; details: 24 h, 4 °C, pool of five; 200 µM; covalent
T2 construct: gene KAT2B
T2 sequence (Q92831 whole entry, the tested form may be a part): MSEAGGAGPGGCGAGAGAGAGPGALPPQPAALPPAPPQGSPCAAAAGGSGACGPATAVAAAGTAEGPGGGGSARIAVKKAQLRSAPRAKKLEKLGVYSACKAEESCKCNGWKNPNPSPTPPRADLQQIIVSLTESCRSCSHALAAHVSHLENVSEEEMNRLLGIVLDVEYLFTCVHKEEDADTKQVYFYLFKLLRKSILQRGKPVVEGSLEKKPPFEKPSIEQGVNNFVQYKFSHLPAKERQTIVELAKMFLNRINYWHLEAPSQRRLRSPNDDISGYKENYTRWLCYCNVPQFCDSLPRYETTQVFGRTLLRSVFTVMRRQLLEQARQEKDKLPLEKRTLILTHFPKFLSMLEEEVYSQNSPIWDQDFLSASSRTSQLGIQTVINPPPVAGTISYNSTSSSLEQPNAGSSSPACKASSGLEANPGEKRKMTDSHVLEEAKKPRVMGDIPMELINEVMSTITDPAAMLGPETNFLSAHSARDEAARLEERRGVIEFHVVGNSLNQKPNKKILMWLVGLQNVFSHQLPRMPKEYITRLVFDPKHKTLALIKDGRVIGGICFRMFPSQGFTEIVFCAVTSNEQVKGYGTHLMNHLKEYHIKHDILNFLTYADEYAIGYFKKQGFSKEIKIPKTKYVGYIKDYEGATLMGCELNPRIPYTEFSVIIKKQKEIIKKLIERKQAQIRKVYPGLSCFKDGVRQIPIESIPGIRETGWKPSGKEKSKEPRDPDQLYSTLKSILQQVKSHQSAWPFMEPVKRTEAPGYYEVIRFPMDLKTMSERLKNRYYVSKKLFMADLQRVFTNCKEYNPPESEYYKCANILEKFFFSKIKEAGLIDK
Description: as §1

BSA = molecular target: T3, BSA (Bos taurus, UniProt P02769); parameters: Intact protein LC/MS covalent labelling, fragments in pools of five, 200 uM each, 4 °C; details: 24 h, 4 °C, pool of five; 200 µM; covalent
T3 construct: gene ALB
T3 sequence (P02769 whole entry, the tested form may be a part): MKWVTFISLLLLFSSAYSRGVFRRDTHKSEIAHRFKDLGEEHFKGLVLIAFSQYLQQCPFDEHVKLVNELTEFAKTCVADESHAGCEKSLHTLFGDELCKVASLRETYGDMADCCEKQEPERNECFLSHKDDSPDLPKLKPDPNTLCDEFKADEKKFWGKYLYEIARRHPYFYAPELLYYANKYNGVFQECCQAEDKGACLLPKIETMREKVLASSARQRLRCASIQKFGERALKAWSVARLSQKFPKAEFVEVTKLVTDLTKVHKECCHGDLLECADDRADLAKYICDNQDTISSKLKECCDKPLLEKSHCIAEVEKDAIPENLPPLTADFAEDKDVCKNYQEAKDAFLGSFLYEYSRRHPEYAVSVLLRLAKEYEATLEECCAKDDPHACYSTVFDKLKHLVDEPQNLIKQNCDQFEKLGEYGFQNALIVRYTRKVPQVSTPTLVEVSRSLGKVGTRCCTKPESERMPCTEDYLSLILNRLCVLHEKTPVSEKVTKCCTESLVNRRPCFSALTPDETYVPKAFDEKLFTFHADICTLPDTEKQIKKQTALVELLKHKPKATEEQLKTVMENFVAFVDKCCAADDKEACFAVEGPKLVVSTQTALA
Description: as §1

OTUB2 (OTUB2A) = molecular target: T4, OTUB2 (OTUB2A) (Homo sapiens, UniProt Q96DC9); parameters: Intact protein LC/MS covalent labelling, fragments in pools of five, 200 uM each, 4 °C; details: 24 h, 4 °C, pool of five; 200 µM; covalent
T4 construct: full length residues 1-234, E. coli BL21(DE3)-R3, His tag removed by TEV, construct 27312 Da
T4 sequence (Q96DC9 1-234): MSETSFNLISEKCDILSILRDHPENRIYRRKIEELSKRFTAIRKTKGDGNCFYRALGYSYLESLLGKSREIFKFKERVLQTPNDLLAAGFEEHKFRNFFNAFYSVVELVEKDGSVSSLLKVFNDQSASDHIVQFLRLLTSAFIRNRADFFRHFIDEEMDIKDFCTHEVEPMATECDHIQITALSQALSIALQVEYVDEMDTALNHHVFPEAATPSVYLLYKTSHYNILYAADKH
Description: as §1

in vitro [1] = experiment: in vitro; parameters: species or system HB2, CCD841; details: human, hek293 cells
in vitro [2] = experiment: in vitro; parameters: species or system HB2, HEK293; details: human, ccd841 cells
in vitro [3] = experiment: in vitro; parameters: species or system CCD841, HEK293; details: human, hb2 cells, read-out: HB-2 Cells Viability (%)

| SMILES | NUDT7 (NUDT7) | PCAF (PCAF) | BSA (BSA) | OTUB2 (OTUB2 (OTUB2A)) | viability at 48 h, 10 µM (in vitro [1]) | viability at 48 h, 10 µM (in vitro [2]) | viability at 48 h, 10 µM (in vitro [3]) |
| --- | --- | --- | --- | --- | --- | --- | --- |
| Cc1c(Cl)cccc1NC(=O)CCl [PCM-0102130] | 0 | 0 | 0 | 0 | 4.9% | 48.1% | 26% |
| Cc1ccc(-n2nc(C)c(NC(=O)CCl)c2C)cc1 [PCM-0102131] | 0 | 0 | 0 | 0 | 30.1% | 26.3% | 63.8% |
| CC(C)c1cc(NC(=O)CCl)on1 [PCM-0102132] | 0 | 0 | 0 | 0 | 70.6% | 69.9% | 70.9% |
| Cl.O=C(CCl)N1CCN(CC(=O)N2CCOCC2)CC1 [PCM-0102133] | 0 | 0 | 0 | 0.15 | 92.7% | 94.8% | 96.6% |
| Cc1cc([N+](=O)[O-])ccc1NC(=O)CCl [PCM-0102134] | 0.1 | 0 | 0 | 0.11 | 18.1% | 60.9% | 44.3% |
| Cl.O=C(CCl)N1CCN(Cc2c(F)cccc2Cl)CC1 [PCM-0102137] | 0 | 0 | 0 | 0 | 25.8% | 59.5% | 20.8% |
| COc1ccc(NC(=O)CCl)cn1 [PCM-0102140] | 0 | 0 | 0 | 0 | 44.3% | 63.7% | 62% |
| CS(=O)(=O)c1ccccc1NC(=O)CCl [PCM-0102141] | 0 | 0 | 0 | 0 | 96.8% | 98.2% | 96.8% |
| O=C(CCl)NNC(=O)c1cc2c(s1)CCCC2 [PCM-0102142] | 0.09 | 0 | 0 | 1 | 52.6% | 62.6% | 49% |
| COC(=O)c1c(NC(=O)CCl)sc2c1CCCC2 [PCM-0102143] | 0.39 | 0 | 0 | 0.05 | 8.6% | 68.1% | 31.6% |
| O=C(CCl)Nc1nc2c(F)c(F)c(F)cc2s1 [PCM-0102144] | 0.32 | 0 | 0.12 | 0 | 83.1% | 57.9% | 90.9% |
| Cc1c(C#N)c(NC(=O)CCl)n(-c2cccc(F)c2)c1C [PCM-0102146] | 0.58 | 0 | 0 | 0.1 | 3.5% | 47.1% | 25% |
| Cc1nnc(NC(=O)CCl)o1 [PCM-0102147] | 0 | 0 | 0 | 0 | 92.2% | 107% | 102% |
| O=C(CCl)N1CCC(c2ccccc2)=N1 [PCM-0102150] | 0 | 0 | 0 | 0 | 32.7% | 71.8% | 31.2% |
| O=C(CCl)NC(=O)OCc1ccccc1 [PCM-0102153] | 0 | 0 | 0 | 0.79 | 82.8% | 109% | 96% |
| O=C(CCl)Nc1cccc(I)c1 [PCM-0102154] | 0.24 | 0 | 0 | 0.49 | 1.7% | 49% | 12.7% |
| O=C(CCl)N(CC(F)(F)F)c1ccc(Cl)cc1 [PCM-0102155] | 0.79 | 0 | 0 | 0 | 4.3% | 3.5% | 11.2% |
| CC(NC(=O)CCl)C1CC1 (centres unmarked) [PCM-0102157] | 0 | 0 | 0 | 0.1 | 111% | 103% | 87.6% |
| O=C(CCl)N1CCc2ccccc21 [PCM-0102160] | 0 | 0 | 0 | 0 | 16.3% | 44.6% | 6.1% |
| CCC(C)(C)NC(=O)CCl [PCM-0102161] | 0 | 0 | 0 | 0.09 | 116% | 100% | 99.3% |
| NS(=O)(=O)c1cccc(NC(=O)CCl)c1 [PCM-0102162] | 0 | 0 | 0 | 0.58 | 1.1% | 35.4% | 17.4% |
| O=C(CCl)Nc1ccc(O)cc1 [PCM-0102163] | 0 | 0 | 0 | 0.16 | 38.2% | 60.5% | 67.8% |
| NC(=O)c1c(NC(=O)CCl)sc2c1CCC2 [PCM-0102164] | 0.28 | 0 | 0 | 0 | 2.6% | 25.6% | 27.2% |
| Cc1cc(S(N)(=O)=O)cc(NC(=O)CCl)c1C [PCM-0102165] | 0.09 | 0 | 0 | 0.12 | 8.3% | 61.3% | 34.5% |
| Cc1cccc(C(=O)O)c1NC(=O)CCl [PCM-0102167] | 0 | 0 | 0 | 0 | 104% | 102% | 101% |
| Cc1ccc(-c2csc(NC(=O)CCl)n2)cc1 [PCM-0102168] | 0.4 | 0 | 0 | 0 | 5.5% | 67.9% | 5.5% |
| Cc1ccc(NC(=O)NC(=O)CCl)c(C)c1 [PCM-0102171] | 0.2 | 0 | 0 | 0.1 | 74.7% | 53.9% | 78.8% |
| CC(=O)Nc1cccc(NC(=O)CCl)c1 [PCM-0102172] | 0 | 0 | 0 | 0 | 4.7% | 53.4% | 35.9% |
| COc1ccccc1N1CCN(C(=O)CCl)CC1.Cl [PCM-0102173] | 0 | 0 | 0 | 0 | 58.2% | 76.9% | 44.1% |
